Reference: ChEMBL document CHEMBL1156716, “Selenium containing heterocycles: synthesis, anti-inflammatory, analgesic and anti-microbial activities of some new 4-cyanopyridazine-3(2H)selenone derivatives” (Eur J Med Chem, 2008)

Columns and labels:
Rattus norvegicus [1] = assay: Antiinflammatory activity in albino rat assessed as inhibition of carrageenan-induced paw edema at 10 mg/kg, ip after 0.5 hrs; format: functional; details: route intraperitoneal
Rattus norvegicus [2] = assay: Antiinflammatory activity in albino rat assessed as inhibition of carrageenan-induced paw edema at 10 mg/kg, ip after 3 hrs; format: functional; details: route intraperitoneal
Rattus norvegicus [3] = assay: Antiinflammatory activity in albino rat assessed as inhibition of carrageenan-induced paw edema at 10 mg/kg, ip after 4 hrs; format: functional; details: route intraperitoneal
Rattus norvegicus [4] = assay: Antiinflammatory activity in albino rat assessed as inhibition of carrageenan-induced paw edema at 10 mg/kg, ip after 5 hrs; format: functional; details: route intraperitoneal
Rattus norvegicus [5] = assay: Antiinflammatory activity in albino rat assessed as inhibition of carrageenan-induced paw edema at 10 mg/kg, ip after 2 hrs; format: functional; details: route intraperitoneal
Rattus norvegicus [6] = assay: Antiinflammatory activity in albino rat assessed as inhibition of carrageenan-induced paw edema at 10 mg/kg, ip after 1 hrs; format: functional; details: route intraperitoneal
Mus musculus [7] = assay: Acute toxicity in ip dosed albino mouse upto 250 mg/kg after 72 hrs; format: organism-based; parameters: dose 250 mg/kg, route intraperitoneal; details: in vivo
Mus musculus [8] = assay: Analgesic activity in albino mouse assessed as effect on […] at 10 mg/kg, ip after 5 hrs by hot plate test; format: functional; details: route intraperitoneal
Mus musculus [9] = assay: Analgesic activity in albino mouse assessed as effect on […] at 10 mg/kg, ip after 2 hrs by hot plate test; format: functional; details: route intraperitoneal
Mus musculus [10] = assay: Analgesic activity in albino mouse assessed as effect on […] at 10 mg/kg, ip after 4 hrs by hot plate test; format: functional; details: route intraperitoneal
Mus musculus [11] = assay: Analgesic activity in albino mouse assessed as effect on […] at 10 mg/kg, ip after 3 hrs by hot plate test; format: functional; details: route intraperitoneal
Mus musculus [12] = assay: Analgesic activity in albino mouse assessed as effect on […] at 10 mg/kg, ip after 0.5 hrs by hot plate test; format: functional; details: route intraperitoneal
Mus musculus [13] = assay: Analgesic activity in albino mouse assessed as effect on […] at 10 mg/kg, ip after 1 hrs by hot plate test; format: functional; details: route intraperitoneal

Compound | inhibition in vivo at 10 mg/kg (Rattus norvegicus [1]) | inhibition in vivo at 10 mg/kg (Rattus norvegicus [2]) | inhibition in vivo at 10 mg/kg (Rattus norvegicus [3]) | inhibition in vivo at 10 mg/kg (Rattus norvegicus [4]) | inhibition in vivo at 10 mg/kg (Rattus norvegicus [5]) | inhibition in vivo at 10 mg/kg (Rattus norvegicus [6]) | Activity (Mus musculus [7]) | Activity (Mus musculus [8]) | Activity (Mus musculus [9]) | Activity (Mus musculus [10]) | Activity (Mus musculus [11]) | Activity (Mus musculus [12]) | Activity (Mus musculus [13])
O=C1NC2(CCCCC2)NC2=C1[Se]C1NN=C(c3ccccc3)C(c3ccccc3)=C21 (centres undefined) | 8.7% | 23.5% | 30.5% | 38.8% | 23.5% | 9.9% |  |  |  |  |  |  | 
N#Cc1c(-c2ccccc2)c(-c2ccccc2)n[nH]c1=[Se] | 8.8% | 23.5% | 30.5% | 30.5% | 20.5% | 17.2% |  |  |  |  |  |  | 
NC(=O)C1=C(N)C2=C(c3ccccc3)C(c3ccccc3)=NNC2[Se]1 (centres undefined) | 8.7% | 44.4% | 47.2% | 50% | 26.4% | 14.7% | Non-toxic | 83.4% | 99.4% | 90.5% | 98.4% | 90.3% | 97.8%
COc1ccc2c(c1)c(CC(=O)O)c(C)n2C(=O)c1ccc(Cl)cc1 [INDOMETHACIN] | 11.7% | 44.1% | 52.7% | 57.5% | 32.3% | 20.5% |  |  |  |  |  |  | 
NC1=C(C(=O)c2ccccc2)[Se]C2NN=C(c3ccccc3)C(c3ccccc3)=C12 (centres undefined) | 9% | 29.4% | 35.5% | 38.8% | 26.4% | 9% |  | 24.2% | 30.6% | 31.9% | 36.5% | 25.2% | 27.1%
CCOC(=O)C1=C(N)C2=C(c3ccccc3)C(c3ccccc3)=NNC2[Se]1 (centres undefined) | 8.8% | 35.2% | 41.6% | 44.4% | 23.5% | 17.2% |  | 33.4% | 39.8% | 39.6% | 41.3% | 21.6% | 42.8%
CC(=O)Oc1ccccc1C(=O)O [ASPIRIN] |  |  |  |  |  |  |  | 30.01% | 50.5% | 39.2% | 45.6% | 36.2% | 58.9%
N#CC1=C(N)C2=C(c3ccccc3)C(c3ccccc3)=NNC2[Se]1 (centres undefined) | 8.8% | 29.4% | 36.1% | 44.4% | 29.4% | 9.9% |  | 65.3% | 75.5% | 75.5% | 79.8% | 67.9% | 77.9%
CC(=O)C1=C(N)C2=C(c3ccccc3)C(c3ccccc3)=NNC2[Se]1 (centres undefined) | 8.8% | 20.5% | 28.5% | 33.5% | 20.5% | 17.2% |  |  |  |  |  |  | 
